Test results from ChEMBL document CHEMBL1201862, “PubChem BioAssay data set” (2004).
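Tested at 5 concentrations; 48 h exposure; 96-well plates; endpoints linearly interpolated, else capped at highest concentration. The concentration for 50% growth inhibition is given as GI50.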 Active and inactive are the calls of the source. No stated cut-off is given here; in the data, active = GI50 up to about 1.1 µM and inactive = higher.

What was measured:
Experiment in all cases: DTP human tumour cell line panel, 48 h
[1] = test system: 786-0
[2] = test system: EKVX
[3] = test system: HOP-92
[4] = test system: IGROV-1
[5] = test system: K562
[6] = test system: MOLT-4
[7] = test system: Malme-3M
[8] = test system: OVCAR-4
[9] = test system: OVCAR-5
[10] = test system: RPMI-8226
[11] = test system: SK-OV-3
[12] = test system: SNB-19
[13] = test system: U-251
[14] = test system: UO-31
[15] = test system: A549
[16] = test system: SK-MEL-5
[17] = test system: SW-620

With `COc1ccc(C2NC(c3ccc(OC)cc3)C(C)C(=O)C2C)cc1` (configuration not stated) the GI50 [1] was > 100 µM (inactive), the GI50 [2] was 67 µM (inactive) and the GI50 [3] was > 100 µM (inactive). For the same compound, the GI50 [4] was > 100 µM (inactive), the GI50 [5] was 42.7 µM (inactive) and the GI50 [6] was 46.7 µM (inactive). The GI50 [7] was > 100 µM (inactive), the GI50 [8] was > 100 µM (inactive) and the GI50 [9] was 23.4 µM (inactive). The GI50 [10] was 34.2 µM (inactive), the GI50 [11] was > 100 µM (inactive) and the GI50 [12] was > 100 µM (inactive). The GI50 [13] was > 100 µM (inactive) and the GI50 [14] was 60 µM (inactive).

With `O=C(NCCOCCO)c1ccc(O)cc1` the GI50 [1] was > 100 µM (inactive), the GI50 [15] was > 100 µM (inactive) and the GI50 [2] was 20.4 µM (inactive). The GI50 [3] was > 100 µM (inactive), the GI50 [4] was > 100 µM (inactive) and the GI50 [5] was > 100 µM (inactive). The GI50 [6] was > 100 µM (inactive), the GI50 [10] was > 100 µM (inactive) and the GI50 [16] was > 100 µM (inactive). The GI50 [11] was > 100 µM (inactive), the GI50 [17] was > 100 µM (inactive) and the GI50 [13] was > 100 µM (inactive). The GI50 [14] was > 100 µM (inactive).

With `CN(C)c1ccc(/C=c2\sc3nc4ccccc4n3c2=O)cc1` the GI50 [1] was > 100 µM (inactive), the GI50 [15] was > 100 µM (inactive) and the GI50 [2] was > 100 µM (inactive). The GI50 [3] was > 100 µM (inactive), the GI50 [4] was > 100 µM (inactive) and the GI50 [5] was > 100 µM (inactive). For the same compound, the GI50 [7] was > 100 µM (inactive), the GI50 [8] was > 100 µM (inactive) and the GI50 [9] was > 100 µM (inactive). The GI50 [16] was > 100 µM (inactive), the GI50 [12] was > 100 µM (inactive) and the GI50 [17] was > 100 µM (inactive). For the same compound, the GI50 [13] was > 100 µM (inactive) and the GI50 [14] was > 100 µM (inactive).

`c1ccc(/N=C2\c3ccccc3C3=NCCCN32)cc1` was tested, and the GI50 [1] was 90.4 µM (inactive), the GI50 [15] was 42.3 µM (inactive) and the GI50 [2] was 30.6 µM (inactive). For the same compound, the GI50 [3] was 13.8 µM (inactive), the GI50 [4] was 59.8 µM (inactive) and the GI50 [5] was 29.2 µM (inactive). The GI50 [6] was 39.4 µM (inactive), the GI50 [7] was 62.8 µM (inactive) and the GI50 [8] was 42.2 µM (inactive). For the same compound, the GI50 [9] was > 100 µM (inactive), the GI50 [10] was 30.5 µM (inactive) and the GI50 [16] was 28 µM (inactive). The GI50 [12] was 85.9 µM (inactive), the GI50 [17] was 43.9 µM (inactive) and the GI50 [13] was > 100 µM (inactive). For the same compound, the GI50 [14] was 29.2 µM (inactive).

With `C=CCN(N=O)C(=O)ON1C(=O)CCC1=O` the GI50 [1] was > 100 µM (inactive), the GI50 [15] was > 100 µM (inactive) and the GI50 [2] was > 100 µM (inactive). For the same compound, the GI50 [3] was > 100 µM (inactive), the GI50 [4] was > 100 µM (inactive) and the GI50 [5] was > 100 µM (inactive). For the same compound, the GI50 [6] was > 100 µM (inactive), the GI50 [7] was > 100 µM (inactive) and the GI50 [8] was > 100 µM (inactive). For the same compound, the GI50 [9] was 0.0681 µM (active), the GI50 [10] was > 100 µM (inactive) and the GI50 [11] was > 100 µM (inactive). For the same compound, the GI50 [12] was > 100 µM (inactive), the GI50 [17] was > 100 µM (inactive) and the GI50 [13] was 17.7 µM (inactive). The GI50 [14] was > 100 µM (inactive).

With `Cn1nc(-c2ccccc2)c2c(/C=C/c3ccc(F)cc3)onc2c1=O` the GI50 [1] was 11.1 µM (inactive), the GI50 [15] was 13.6 µM (inactive) and the GI50 [2] was > 100 µM (inactive). For the same compound, the GI50 [3] was 2.72 µM (inactive), the GI50 [4] was > 100 µM (inactive) and the GI50 [5] was 17.3 µM (inactive). For the same compound, the GI50 [6] was > 100 µM (inactive), the GI50 [10] was > 100 µM (inactive) and the GI50 [16] was > 100 µM (inactive). For the same compound, the GI50 [11] was 50 µM (inactive), the GI50 [17] was > 100 µM (inactive) and the GI50 [13] was 64 µM (inactive). For the same compound, the GI50 [14] was 29.2 µM (inactive).

In the case of `Cc1cc(Cl)cc2c1NC(=O)C2=O.O=C(c1ccccc1)C(F)(F)F`, the GI50 [1] is reported as 70.1 µM (inactive), the GI50 [15] is reported as 52.2 µM (inactive) and the GI50 [2] is reported as 49 µM (inactive). The GI50 [3] was 52.6 µM (inactive), the GI50 [4] was > 100 µM (inactive) and the GI50 [5] was 32.4 µM (inactive). The GI50 [6] was 20.1 µM (inactive), the GI50 [7] was 45.6 µM (inactive) and the GI50 [8] was 33 µM (inactive). For the same compound, the GI50 [9] was > 100 µM (inactive), the GI50 [16] was 41.7 µM (inactive) and the GI50 [11] was > 100 µM (inactive). The GI50 [12] was 72.4 µM (inactive), the GI50 [17] was 72.8 µM (inactive) and the GI50 [13] was 85.9 µM (inactive). The GI50 [14] was 91.6 µM (inactive).
